This note sets out measurements from US5874446A, “Benzopyran derivatives” (Chugai Seiyaku Kabushiki Kaisha, priority 1992, dated 1999).

The structures appear in SMILES notation.

In experiment [1] the test system is Excised Aorta of Rat (thoracic aorta ring preparations). Briefly: Test with Excised Aorta of Rat: relaxation of lasting contraction by KCl. As to conditions: 50% inhibitory concentration, relaxation of 30 mM KCl contraction, Krebs-Henseleit, 37° C. In kind it is cell-based, male Sprague Dawley rat. How it is done: Test with Excised Aorta of Rat
The thoracic aorta was excised from a male Sprague Dawley rat (450 to 600 g) and cut into 2 mm wide ring preparations. Each preparation was suspended in 10 ml of an Organ bath containing a Krebs-Henseleit solution (NaCl:119; KCl:4.8; CaCl2.2H2 O:2.53; KH2 PO4 :1.2; MgSO4.7H2 O:1.2; NaHCO3 :24.8; glucose:10(mM); 37° C.) under a tension of 2 g, and a mixed gas of 95% O2 and 5% CO2 was bubbled therethrough. Contraction reactions of the preparation were isometrically recorded by means of an FD pick-up. […] The activity of a test compound to relax a lasting contraction by the addition of KCl was evaluated by obtaining a 50% inhibitory concentration (IC50)
The compounds of the present invention obtained in the foregoing Examples and Cromakalim was used as test compound for comparison.

Experiment [2] concerns Guinea Pig Tracheal Muscle. As to the kind of experiment: Test with Guinea Pig Tracheal Muscle: relaxing activity on spontaneous tension. It counts as cell-based, male Hartley guinea pig. The following applies: Cavia porcellus; 50% relaxing activity; 1 mM aminophylline on spontaneous tension taken as 100%; Krebs-Henseleit, 37° C. The protocol:
Test with Guinea Pig Tracheal Muscle
The trachea was excised from a male Hartley guinea pig (450 to 550 g) to make chain preparations. The preparation was suspended in a bath containing the abovementioned Krebs-henseleit solution (37° C.) through which a mixed gas of 95% O2 and 5% CO2 was bubbled. Contraction reactions of the preparation were isometrically recorded under a tension of 1 g.
The same test compound as used in Text Example 1 were used.

With `O=C1CCCCN1[C@@H]1c2cc([N+](=O)[O-])ccc2OC(CF)(CF)[C@H]1O` (relative stereo) [Compound 6-2, Trans-2,2-bisfluoromethyl-3,4-dihydro-6-nitro-4-(2-oxo-1-piperidinyl)-2H-1-benzopyran-3-ol], the figures for the IC50 in experiment [1] and in experiment [2] were 2.6 nM and 6.8 nM, respectively.

For `[O-][n+]1ccccc1C1=CC(CF)(CF)Oc2ccc(C(F)(F)C(F)(F)F)cc21` [Compound 48, 2-(6-Pentafluoroethyl-2,2-bisfluoromethyl-2H-1-benzopyran-4-yl)pyridine N-oxide], the IC50 (as a rule, the concentration needed to halve the response being measured) in experiment [1] was determined as 1.6 nM; in experiment [2] it was 3.9 nM.

As for `N#Cc1ccc2c(c1)[C@@H](N1CCCC1=O)[C@H](O)C(CF)(CF)O2` (relative stereo) [Compound 2-2, Trans-6-cyano-2,2-bisfluoromethyl-3,4-dihydro-4-(2-oxo-1-pyrrolidinyl)-2H-1-benzopyran-3-ol], the IC50 was 74 nM in experiment [1] and 390 nM in experiment [2].

As to `CC1(C)Oc2ccc(C#N)cc2[C@@H](N2CCCC2=O)[C@@H]1O` (relative stereo) [Cromakalim, reference compound], the IC50 in experiment [1] worked out at 170 nM; in experiment [2], 860 nM.

Turning to `[O-][n+]1ccccc1C1=CC(CF)(CF)Oc2ccc(C(F)(F)F)cc21` [Compound 50, 2-(2,2-Bisfluoromethyl-6-trifluoromethyl-2H-1-benzopyran-4-yl)pyridine N-oxide], inhibition in experiment [2] was half-maximal at 18 nM (IC50).

Consider `N#C[N-][n+]1ccccc1C1=CC(CF)(CF)Oc2ccc(C(F)(F)C(F)(F)F)cc21` [Compound 55, 2-(6-Pentafluoroethyl-2,2-bisfluoromethyl-2H-1-benzopyran-4-yl)pyridine N-cyanoimine], for which the IC50 in experiment [1] was 0.82 nM; in experiment [2], 6.3 nM.

Take `O=C1CCCCN1[C@@H]1c2cc(C(F)(F)C(F)(F)F)ccc2OC(CF)(CF)[C@H]1O` (relative stereo) [Compound 4-2, Trans-6-pentafluoroethyl-2,2-bisfluoromethyl-3,4-dihydro-4-(2-oxo-1-piperidinyl)-2H-1-benzopyran-3-ol]: the IC50 in experiment [1] was determined as 0.28 nM; in experiment [2], 6.9 nM.

On to `O=c1ccccn1C1=CC(CF)(CF)Oc2ccc([N+](=O)[O-])cc21` [Compound 12, 2,2-Bisfluoromethyl-6-nitro-4-(1,2-dihydro-2-oxo-1-pyridyl)-2H-1-benzopyran], for which the IC50 in experiment [1] was determined as 2.5 nM; in experiment [2], 5.9 nM.

`N#C[N-][n+]1ccccc1C1=CC(CF)(CF)Oc2ccc([N+](=O)[O-])cc21` [Compound 52, 2-(2,2-Bisfluoromethyl-6-nitro-2H-1-benzopyran-4-yl)pyridine N-cyanoimine]: the results for the IC50 in experiment [1] and in experiment [2] were 2 nM and 12 nM, respectively.
